Measured values published in publication PMC2689245, “Purification and characterization of a serine protease (CESP) from mature coconut endosperm” (BMC Research Notes, 2009).

System: T1, CESP (coconut endosperm protease)
T1 construct: native, purified from fully matured coconut kernel (endosperm)
Test: p-nitroaniline release at […] nm
Type: biochemical, Cocos nucifera
Conditions: 100 mM Tris HCl pH 8.5, 37 °C

## N=C(N)NCCCC(NC(=O)c1ccccc1)C(=O)Nc1ccc([N+](=O)[O-])cc1 (racemic) [BAPNA]
  Km: 200 µM
